# From US5266588A, “Compound produced by a strain of microtetraspora having antibacterial and neuritogenic activity” (Bristol-Myers Squibb Company, priority 1992, dated 1993)
# Entries after “also recorded” stand apart in the source; their conditions may differ.
# Experiments:
# [1] = literature table; cited from earlier work
# [2] = Solubility; assay type: physicochemical
# [3] = test system: PC 12R cells; test: Assay for the neurite outgrowth (PC 12R cells pre-treated with 0.1 ng/ml NGF); assay type: cell-based, rat; settings: for No. of Neurites: neurites over 10 mm long on monitor
# Method: Assay for the Neurite Outgrowth
# The PC 12R cell density was adjusted to 1×10^5 cells/ml and 180 μl aliquots of the cell suspension were added to assay wells in a 96 well microtiter plate (Suimitomo). […] For the positive controls, 5.0 ng/ml NGF was added to a well. As negative controls, PC 12R cells without NGF were also prepared. […] Then a 20 μl aliquot of a test sample at varied concentrations was added to the test well containing PC 12R cells pre-treated with 0.1 ng/ml NGF. After 24 hours' incubation, the medium was removed and the cells were fixed with 0.3% glutaraldehyde (Tokyo Kasei) in Dulbecco's phosphate buffered saline and stained with Harris hematoxylin solution (Merck).
# The stained cells were observed under a phase-contrast microscope connected with a video camera-CRT system. PC 12R cells were magnified 500 times on the CRT monitor. The lengths of spikes of the negative control cells were measured in order to establish the standard length of a spike of the PC 12R cells.
# [4] = test system: B. subtilis PCI 219; test: Antibacterial activity (serial 2-fold dilution MIC); assay type: cell-based; settings: Bacillus subtilis, PCI219; Nutrient Agar, pH 7.0; 10^5 cells/ml; 32° C., 18 hr
# Method: (§1) Assay for the Antibacterial Activity
# (§2) The MIC's of BU-4514N against various test microorganisms were determined by the serial 2-fold dilution method after overnight incubation at 32° C. Nutrient agar medium (Difco) was used for Gram-positive and Gram-negative bacteria.
# (§3) Medium: Nutrient Agar, pH 7.0
# (§4) Inoculum size: 10^5 cells/ml
# (§5) Incubations: 32° C., 18 hr
# [5] = test system: S. aureus FDA 209P JC-1; test: as above; assay type: cell-based; settings: Staphylococcus aureus, FDA209P; Nutrient Agar, pH 7.0; 10^5 cells/ml; 32° C., 18 hr
# Method: as §1, §2, §3, §4, §5
# [6] = test system: S. aureus Smith; test: as above; assay type: cell-based; settings: Staphylococcus aureus; Nutrient Agar, pH 7.0; 10^5 cells/ml; 32° C., 18 hr
# Method: as §1, §2, §3, §4, §5
# [7] = test system: E. coli K12; test: as above; assay type: cell-based; settings: Escherichia coli, Nutrient Agar, pH 7.0, 10^5 cells/ml, 32° C., 18 hr
# Method: as §1, §2, §3, §4, §5
# [8] = test system: S. aureus A15036 (MRSA); test: as above; assay type: cell-based; settings: Staphylococcus aureus, Nutrient Agar, pH 7.0, 10^5 cells/ml, 32° C., 18 hr
# Method: as §1, §2, §3, §4, §5
# [9] = test system: C. fleundii GN 7391; test: as above; assay type: cell-based; settings: Nutrient Agar, pH 7.0; 10^5 cells/ml; 32° C., 18 hr
# Method: as §1, §2, §3, §4, §5
# [10] = test system: K. pneumoniae PCI 602; test: as above; assay type: cell-based; settings: Klebsiella pneumoniae, PCI602; Nutrient Agar, pH 7.0; 10^5 cells/ml; 32° C., 18 hr
# Method: as §1, §2, §3, §4, §5
# [11] = test system: E. coli NIHJ JC-2; test: as above; assay type: cell-based; settings: Escherichia coli, NIHJJC2; Nutrient Agar, pH 7.0; 10^5 cells/ml; 32° C., 18 hr
# Method: as §1, §2, §3, §4, §5
# [12] = test system: P. aeruginosa A9843A; test: as above; assay type: cell-based; settings: Pseudomonas aeruginosa, 18 h, pH 7
# Method: as §1, §2, §3, §4, §5
# [13] = test system: E. coli Juhl A15119; test: as above; assay type: cell-based; settings: Escherichia coli, JUHLA15119; Nutrient Agar, pH 7.0; 10^5 cells/ml; 32° C., 18 hr
# Method: as §1, §2, §3, §4, §5
# [14] = test system: M. luteus PCI 1001; test: as above; assay type: cell-based; settings: Micrococcus luteus, PCI1001; Nutrient Agar, pH 7.0; 10^5 cells/ml; 32° C., 18 hr
# Method: as §1, §2, §3, §4, §5
# [15] = test system: S. typhi 901; test: as above; assay type: cell-based; settings: Salmonella enterica, 18 h, pH 7
# Method: as §1, §2, §3, §4, §5
# [16] = test system: Gram-positive bacteria; test: In vitro antibacterial activity against Gram-positive bacteria; assay type: cell-based
# Method: as §1, §2
# [17] = test system: retrograde neuronal cell death; septohippocampal connections; settings: cited from earlier work
# [18] = test system: cholinergic neuron atrophy and spatial memory impairment; settings: aged rats; cited from earlier work
# [19] = test system: adrenal medullary autografts; settings: intraperitoneal infusion, Parkinson's disease; cited from earlier work
# [20] = test system: PC12 pheochromocytoma cells; settings: cited from earlier work
# [21] = 1.6 μg/ml, with 0.1 ng/ml NGF, 24 h
# [22] = 3.1 μg/ml, with 0.1 ng/ml NGF, 24 h
# [23] = 6.3 μg/ml, with 0.1 ng/ml NGF, 24 h
# [24] = 12.5 μg/ml, sum of 5 fields/well and 3 wells, with 0.1 ng/ml NGF, 24 h
# [25] = NGF 0.1 ng/ml (Running control)
compound,measurement,setting,value
"C=C1/C(=C\C=C2/CCC[C@]3(C)[C@@H]([C@H](C)CCCC(C)(C)O)CC[C@@H]23)C[C@@H](O)C[C@@H]1O [1,25-Dihydroxy-vitamin D3]",Note (reported NGF mimic activity),[1],NGF inducer
CC1=CC2CC(C)CCC2C(C)(C(=O)C2=C(O)CNC2=O)C1CC(C)OC1CCC(N)C(C)O1 (stereo not shown) [BU-4514N],solubility,[2]; acidic water,soluble
same,solubility,[2]; dimethylsulfoxide,soluble
same,solubility,[2]; methanol,soluble
same,solubility,"[2]; ordinary organic solvents, such as chloroform, ethyl acetate and benzene",practically insoluble
same,solubility,[2]; water,practically insoluble
same,No. of Neurites,[3]; [21],2
same,No. of Cells,[3]; [21],1611
same,Ratio (No. of Neurites/No. of Cells),[3]; [21],0.12%
same,No. of Neurites,[3]; [22],25
same,No. of Cells,[3]; [22],1848
same,Ratio (No. of Neurites/No. of Cells),[3]; [22],1.4%
same,No. of Neurites,[3]; [23],149
same,No. of Cells,[3]; [23],1570
same,Ratio (No. of Neurites/No. of Cells),[3]; [23],9.5%
same,No. of Neurites,[3]; [24],244
same,No. of Cells,[3]; [24],1123
same,Ratio (No. of Neurites/No. of Cells),"[3]; 12.5 μg/ml, with 0.1 ng/ml NGF, 24 h",21.7%
same,neurite outgrowth in number and length,"[3]; 12.5 to 6.3 μg/ml, compared to the negative control cells",significantly induces the neurite outgrowth in number and length
same,MIC,[4],0.8 µg/mL
same,MIC,[5],1.6 µg/mL
same,MIC,[6],3.1 µg/mL
same,MIC,[7],> 100 µg/mL
same,MIC,[8],3.1 µg/mL
same,MIC,[9],> 100 µg/mL
same,MIC,[10],> 100 µg/mL
same,MIC,[11],> 100 µg/mL
same,MIC,[12],> 100 µg/mL
same,MIC,[13],> 100 µg/mL
same,MIC,[14],1.6 µg/mL
same,MIC,[15],> 100 µg/mL
same,in vitro antibacterial activity,[16],good in vitro antibacterial activity
CCCCCCCCCCCCCC(=O)O[C@@H]1[C@@H](C)[C@@]2(O)[C@@H](C=C(CO)C[C@]3(O)C(=O)C(C)=C[C@@H]23)[C@@H]2C(C)(C)[C@]12OC(C)=O [Phorbol 12-myristate 13-acetate],Note (reported NGF mimic activity),[1],NGF inducer
CC1=C(/C=C/C(C)=C/C=C/C(C)=C/C(=O)O)C(C)(C)CCC1 [Retinoic acid],Note (reported NGF mimic activity),[1],NGF inducer
NGF: protein known to be essential for the development and maintenance of certain sympathetic and sensory neurons in the peripheral nervous system,behavioral recovery,[17]; after damage to the septohippocampal connections,promote behavioral recovery
same,retrograde neuronal cell death,"[17]; intraventricular injections or infusions, young adult rats",prevent retrograde neuronal cell death
same,cholinergic neuron atrophy and spatial memory impairment,[18],ameliorate cholinergic neuron atrophy and spatial memory impairment
same,No. of Cells,[3]; [25],1565
same,Ratio (No. of Neurites/No. of Cells),[3]; [25],0.13%
same,No. of Neurites,[3]; [25],2
same,No. of Cells,[3]; NGF 5 ng/ml (Positive control),1053
same,Ratio (No. of Neurites/No. of Cells),[3]; NGF 5 ng/ml (Positive control),6.8%
same,No. of Neurites,[3]; NGF 5 ng/ml (Positive control),72
same,sensitivity of PC 12R cells to NGF,[3]; as high as,1 ng/mL
same,support of adrenal medullary autografts,[19],supports adrenal medullary autografts
same,response of PC12 cells to NGF,[20],differentiate into sympathetic neuron-like cells; also recorded: differentiating into sympathetic neuron-like cells
